Reference: patent US20090047243A1, “COMBINATIONS FOR THE TREATMENT OF B-CELL PROLIFERATIVE DISORDERS” (priority 2007, published 2009)

Columns and labels:
[1] = tested on: human multiple myeloma cells (MM.1R); assay: Anti-proliferation assay (ATPLite, 72 h); assay type: cell-based; set-up: key: S = lnfX·lnfY·ΣIdata(Idata−ILoewe), volume over Loewe additivity
Protocol: (§1) ANBL6 and INA-6 culture media was also supplemented with 10 ng/ml IL-6. […] MM.1S, MM.1R, OCI-ly10, Karpas 422, and SU-DHL6 cells were provided by the Dana Farber Cancer Institute. H929, RPMI-8226, GA-10, and Farage cells were from ATCC (Cat #'s CCL-155, CRL-9068, CRL-2392 and CRL-2630 respectively). MOLP-8, EJM, KSM-12-PE, and OPM2 were from DSMZ. The ANBL6 and INA-6 cell lines were provided by the M. D. Anderson Cancer Research Center. Compounds were prepared in DMSO at 1000× the highest desired concentration. Master plates were generated consisting of serially diluted compounds in 2- or 3-fold dilutions in 384-well format. For single agent dose response curves, the master plates consisted of 9 individual compounds at 12 concentrations in 2- or 3-fold dilutions. For combination matrices, master plates consisted of individual compounds at 6 or 9 concentrations at 2- or 3-fold dilutions. […] To obtain combination data, two master plates were diluted into the assay plates. […] Thirty microliters of ATPLite (Perkin Elmer) at room temperature was then added to each well. […] Measurements were taken at the top of the well using a luminescence aperture and a read time of 0.1 seconds per well. The percent inhibition (% I) for each well was calculated using the following formula: % I=[(avg. untreated wells-treated well)/(avg. untreated wells)]×100. […] Negative inhibition values result from local variations in treated wells as compared to untreated wells. […] The uncertainty of each fitted parameter was estimated from the range over which the change in reduced chi-squared was less than one, or less than minimum reduced chi-squared if that minimum exceeded one, to allow for underestimated σI errors. Single agent curve data were used to define a dilution series for each compound to be used for combination screening in a 6×6 matrix format. […] The Loewe additivity model was used to quantify combination effects. […] A “Synergy Score” was also used, where the Synergy Score S=log fX log fY ΣIdata(Idata-ILoewe), summed over all non-single-agent concentration pairs, and where log fX,Y is the natural logarithm of the dilution factors used for each single agent. This effectively calculates a volume between the measured and Loewe additive response surfaces, weighted towards high inhibition and corrected for varying dilution factors. An uncertainty σS was calculated for each synergy score, based on the measured errors for the Idata values and standard error propagation.

[2] = tested on: phosphodiesterase (PDE) types; conditions: PDE type(s) in brackets after the name; cited from earlier work
[3] = tested on: RPMI-8226 multiple myeloma cell line; assay: Anti-proliferation assay (ATPLite, 72 h); assay type: cell-based, human; set-up: key: S = lnfX·lnfY·ΣIdata(Idata−ILoewe), volume over Loewe additivity
Protocol: as §1

[4] = tested on: H929 multiple myeloma cell line; assay: Anti-proliferation assay (ATPLite, 72 h); assay type: cell-based, human; set-up: key: S = lnfX·lnfY·ΣIdata(Idata−ILoewe), volume over Loewe additivity
Protocol: as §1

[5] = tested on: human multiple myeloma cells (MM.1S); assay: Anti-proliferation assay (ATPLite, 72 h); assay type: cell-based; set-up: key to synergy score / synergy (score), PDEi × HE-NECA: S = lnfX·lnfY·ΣIdata(Idata−ILoewe), volume over Loewe additivity
Protocol: as §1

[6] = tested on: patient CLL cells; assay: Apoptosis assay (Hoechst 33342, flow cytometry, 48 h); assay type: cell-based, human; set-up: unit not given here
Source text: Blood samples were obtained in heparinized tubes with IRB-approved consent from flow cytometry-confirmed B-CLL patients that were either untreated or for whom at least 1 month had elapsed since chemotherapy. Patients with active infections or other serious medical conditions were not included in this study. Patients with white blood cell counts of less than 15,000/μl by automated analysis were excluded from this study. Whole blood was layered on Ficoll-Hystopaque (Sigma), and peripheral blood mononuclear cells (PBMC) isolated after centrification. […] One million cells were stained with anti-CD5-PE and anti-CD19-PE-Cy5 (Becton Dickenson, Franklin Lakes N.J.). The percentage of B-CLL cells was defined as the percentage of cells doubly expressing CD5 and CDl9, as determined by flow cytometry. […] Compound master plates were diluted 1:50 into complete media to create working compound dilutions. Compound crosses were then created by diluting two working dilution plates 1:10 into each plate of cells. […] Hoechst 33342 (Molecular Probes, Eugene Oreg.) at a final concentration of 0.25 μg/1 mL was added to each well, and the cells incubated at 37° C. for an additional ten minutes before being placed on ice until analysis. Plates were then analyzed on a LSR-II flow cytometer (Becton Dickenson, Franklin Lakes, N.J.) equipped with the High Throughput Sampling (HTS) option in high throughput mode. […] The apoptotic fraction was calculated using FlowJo software (Tree Star Inc., Ashland, Oreg.) after excluding debris by a FSC/SSC gate and subsequently gating for cells that accumulate the Hoechst dye.

[7] = in combination with adenosine receptor agonist CGS-21680, MM.1R
[8] = in combination with adenosine receptor agonist regadenoson, MM.1R
[9] = in combination with adenosine receptor agonist CGS-21680, RPMI 8226
[10] = in combination with adenosine receptor agonist HE-NECA, RPMI-8226
[11] = in combination with adenosine receptor agonist regadenoson, RPMI 8226
[12] = PDE inhibitor crossed with (S) ENBA, H929
[13] = PDE inhibitor crossed with Chloro-IB-MECA, H929
[14] = PDE inhibitor crossed with HE-NECA, H929
[15] = in combination with adenosine receptor agonist CGS-21680, H929
[16] = in combination with adenosine receptor agonist HE-NECA, H929
[17] = in combination with adenosine receptor agonist regadenoson, H929
[18] = PDE inhibitor crossed with (S) ENBA, MM.1S
[19] = PDE inhibitor crossed with Chloro-IB-MECA, MM.1S
[20] = PDE inhibitor crossed with HE-NECA, MM.1S
[21] = in combination with adenosine receptor agonist CGS-21680, MM.1S
[22] = in combination with adenosine receptor agonist HE-NECA, MM.1S
[23] = in combination with adenosine receptor agonist regadenoson, MM.1S
[24] = PDE inhibitor crossed with ADAC, H929
[25] = PDE inhibitor crossed with ADAC, MM.1S

| Structure (SMILES) | synergy score [1, 7] | synergy score [1, 8] | PDE inhibitors (specificity) [2] | synergy score [3, 9] | synergy score [3, 10] | synergy score [3, 11] | synergy score [4, 12] | synergy score [4, 13] | synergy score [4, 14] | synergy score [4, 15] | synergy score [4, 16] | synergy score [4, 17] | synergy score [5, 18] | synergy score [5, 19] | synergy score [5, 20] | synergy score [5, 21] | synergy score [5, 22] | synergy score [5, 23] | synergy score [4, 24] | synergy score [5, 25] | further results |
| --- | --- | --- | --- | --- | --- | --- | --- | --- | --- | --- | --- | --- | --- | --- | --- | --- | --- | --- | --- | --- | --- |
| Cc1ccc([N+](=O)[O-])cc1S(=O)(=O)N(C)C [BRL-50481, 3-(N,N-dimethylsulfonamido)-4-methyl-nitrobenzene] | 1.22 | 1.09 | BRL-50481(7) | 0.19 | 0.147 | 0.39 | 0.26 | 0.34 | 0.23 | 0.34 | 0.193 | 0.19 | 1.22 | 1.47 | 1.41 | 1.78 | 1.38 | 0.82 | – | – | – |
| CCCCOc1cc(CC2CNC(=O)N2)ccc1OC (stereo not shown) [RO-20-1724, 4-(3-butoxy-4-methoxybenzyl)-2-imidazolidinone] | – | – | RO-20-1724 (4) | – | – | – | 0.09 | 1.14 | 2.51 | – | – | – | 0.73 | 1.6 | 3.58 | – | – | – | 1.11 | 1.71 | synergy score ([1]; in combination with adenosine receptor agonist ADAC, MM.1R): 3.42; synergy score ([3]; in combination with adenosine receptor agonist ADAC, RPMI-8226): 0.51; synergy score ([4]; in combination with adenosine receptor agonist ADAC, H929): 1.1; inhibition at 2.28 µM ([5]; Homo sapiens, MM1.S, RO-20-1724 2.28 μM, HE-NECA conc. (nM), read-out: Percent inhibition of ATP in MM.1S cells): 2.3%; inhibition at 4.55 µM ([5]; Homo sapiens, MM1.S, RO-20-1724 4.55 μM, HE-NECA conc. (nM), read-out: Percent inhibition of ATP in MM.1S cells): 11%; inhibition at 18.2 µM ([5]; Homo sapiens, MM1.S, RO-20-1724 18.2 μM, HE-NECA conc. (nM), read-out: Percent inhibition of ATP in MM.1S cells): 10%; inhibition at 36.4 µM ([5]; Homo sapiens, MM1.S, RO-20-1724 36.4 μM, HE-NECA conc. (nM), read-out: Percent inhibition of ATP in MM.1S cells): 1.4%; synergy score ([5]; in combination with adenosine receptor agonist ADAC, MM.1S): 1.71 |
| O=C1CCc2cc(OCCCCc3nnnn3C3CCCCC3)ccc2N1 [Cilostazol, 6-[4-(1-cyclohexyl-1H-tetrazol-5-yl)butoxy]-3,4-dihydro-2(1H)-quinolinone] | 1.57 | 0.76 | Cilostazol (3) | 0.37 | 0.2486 | 0.12 | 0.4 | 0.46 | 1.21 | 1.12 | 0.6849 | 1.34 | 1.73 | 0.75 | 3.50 | 4.09 | 1.849 | 1.85 | 0.36 | 0.89 | – |
| CCNC(=O)[C@H]1O[C@@H](n2cnc3c(N)nc(NCCc4ccc(CCC(=O)O)cc4)nc32)[C@H](O)[C@@H]1O [CGS-21680, 2-(4-(2-carboxyethyl)phenethylamino)-5′-N-ethylcarboxamidoadenosine] | – | – | – | – | – | – | – | – | – | – | – | – | – | – | – | – | – | – | – | – | Induction of apoptosis ([6]; CGS-21680 0.05 μM, Roflumilast 0 μM (Table 50)): 12; Induction of apoptosis ([6]; CGS-21680 0.05 μM, Trequinsin 0 μM (Table 51)): 16; Induction of apoptosis ([6]; CGS-21680 0.15 μM, Roflumilast 0 μM (Table 50)): 15; Induction of apoptosis ([6]; CGS-21680 0.15 μM, Trequinsin 0 μM (Table 51)): 16; Induction of apoptosis ([6]; CGS-21680 […], Roflumilast 0 μM (Table 50)): 25; Induction of apoptosis ([6]; CGS-21680 […], Trequinsin 0 μM (Table 51)): 27 |
| COc1ccc(Cc2nn3c([C@@H](CCCc4ccccc4)[C@@H](C)O)nc(C)c3c(=O)[nH]2)cc1OC [BAY 60-7550, 2-(3,4-dimethoxybenzyl)-7-[(1R)-1-[(1R)-1-hydroxyethyl]-4-phenylbutyl]-5-methylimidazo[5,1-f][1,2,4]triazin-4(3H)-one] | 4.59 | 3.07 | BAY 60-7550 (2) | 0.76 | 0.7784 | 0.98 | 1.07 | 0.74 | 3.71 | 3.86 | 1.933 | 1.89 | 2.84 | 0.86 | 3.8 | 3.85 | 2.364 | 0.91 | 0.55 | 0.85 | synergy (score), PDEi × HE-NECA ([4]; 6×6 cross of PDE inhibitor or PDE inhibitor mixture with HE-NECA, H929): 1.68; synergy (score), PDEi × HE-NECA ([5]; 6×6 cross of PDE inhibitor or PDE inhibitor mixture with HE-NECA, MM.1S): 1.64; inhibition at 0.7375 µM ([5]; Homo sapiens, MM1.S, BAY 60-7550 0.7375 μM, HE-NECA conc. (nM), read-out: Percent inhibition of ATP in MM.1S cells): -9.4%; inhibition at 1.475 µM ([5]; Homo sapiens, MM1.S, BAY 60-7550 1.475 μM, HE-NECA conc. (nM), read-out: Percent inhibition of ATP in MM.1S cells): -3.6%; inhibition at 2.95 µM ([5]; Homo sapiens, MM1.S, BAY 60-7550 2.95 μM, HE-NECA conc. (nM), read-out: Percent inhibition of ATP in MM.1S cells): 4%; inhibition at 5.9 µM ([5]; Homo sapiens, MM1.S, BAY 60-7550 5.9 μM, HE-NECA conc. (nM), read-out: Percent inhibition of ATP in MM.1S cells): 6%; inhibition at 11.8 µM ([5]; Homo sapiens, MM1.S, BAY 60-7550 11.8 μM, HE-NECA conc. (nM), read-out: Percent inhibition of ATP in MM.1S cells): 13% |
